Where “and” joins values, the source holds several entries; their conditions need not be identical. Equal entries are not always repeated.
Columns and labels:
Assay in all cases: Field trial, post-emergence foliar application, visually rated % weed control
Format in all cases: in vivo
[1] = tested on: Conyza species (fleabane, ERISS)
Description: (§1) Treatments consisted of the methyl ester of 4-amino-3-chloro-6-(4-chloro-2-fluoro-3-methoxyphenyl)pyridine-2-carboxylic acid (Cmpd 1, halauxifen-methyl) and diclosulam in combination as GF-3220. The form of compound of formula (I) was applied on an acid equivalent basis, and diclosulam was applied on an active ingredient basis. Glufosinate-ammonium salt was applied as various commercial formulations containing 480 grams acid equivalent per liter (g ae/L). Saflufenacil was applied as a commercial formulation containing 700 grams per kilogram (g/kg). Paraquat was applied as a commercial formulation containing 200 g/L.
(§2) Field trials were conducted under standard field conditions. Plot sizes varied from 2-4 meters (m) wide by 2-5 m long. Treatments were applied with small plot backpack sprayers, using pressurized carbon dioxide (CO2) as propellant. Pressure varied from 22-40 pounds per square inch (PSI), with spray tips typically of a Flat Fan type applying water diluent at 100-150 liters per hectare (L/ha). Boom sizes varied from 2-4 m in width. Weed sizes varied, but all treatments were applied as post-emergence treatments to weeds from 2 leaf to 2 tiller growth stages varying from 2-15 inches in height. No additional adjuvant was mixed with the treatments applied in the field.
(§3) Results in Tables 1 to 7 are field trial results for foliar applied compositions. The values reported are percent (%) control visually rated. The predicted percent (%) weed control was determined using Colby's equation. • The compositions tested, application rates employed, plant species tested, and results are given in Tables 1 to 7. • The following abbreviations are used in Tables 1 to 7: • ERISS=Conyza species (fleabane, ERISS) • ERISU=Conyza sumatrensis (Guernsey fleabane) • EPHHL=Euphorbia heterophylla L. (wild poinsettia) • IAQGR=Ipomoea grandifolia (Corda-de-viola) • ERIBO=Conyza bonariensis (fleabane) • g ae/ha=grams acid equivalent per hectare • g ai/ha=grams active ingredient per hectare • Mean % weed control=observed value of percent (%) control rated visually • Predicted mean % weed control=expected value of percent (%) control as calculated by Colby's equation • Cmpd 1=methyl 4-amino-3-chloro-6-(4-chloro-2-fluoro-3-methoxyphenyl)pyridine-2-carboxylate, halauxifen-methyl, or ARYLEX®

[2] = tested on: Conyza bonariensis (fleabane, ERIBO); conditions: Table 7, ERIBO, 21DAA, Paraquat 200 g ai/ha
Description: as §1, §2, §3

[3] = tested on: Conyza sumatrensis (Guernsey fleabane, ERISU)
Description: as §1, §2, §3

[4] = tested on: Euphorbia heterophylla L. (wild poinsettia, EPHHL); conditions: Table 4, EPHHL
Description: as §1, §2, §3

[5] = tested on: Ipomoea grandifolia (Corda-de-viola, IAQGR); conditions: Table 5, IAQGR, Paraquat 300 g ai/ha
Description: as §1, §2, §3

With `CC(C)N(C)S(=O)(=O)NC(=O)c1cc(-n2c(=O)cc(C(F)(F)F)n(C)c2=O)c(F)cc1Cl` [Saflufenacil, 2-chloro-5-[3,6-dihydro-3-methyl-2,6-dioxo-4-(trifluoromethyl)-1(2H)-pyrimidinyl]-4-fluoro-N-[[methyl(1-methylethyl)amino]sulfonyl]benzamide] the “Mean % weed control” value ([1]; Table 2, ERISS, 17DAA, Saflufenacil 49 g ai/ha) was 52.5% and 66.3%, the “Mean % weed control” value ([1]; Table 2, ERISS, 28DAA, Saflufenacil 49 g ai/ha) was 66.3% and the “Mean % weed control” value ([1]; Table 2, ERISS, 43DAA, Saflufenacil 49 g ai/ha) was 77.5%.
In the case of `C[n+]1ccc(-c2cc[n+](C)cc2)cc1` [Paraquat, 1,1′-dimethyl-4,4′-bipyridinediium], the “Mean % weed control” value [2] was 28.3%, the “Mean % weed control” value ([1]; Table 3, ERISS, 17DAA, Paraquat 400 g ai/ha) was 32.5% and 52.5% and the “Mean % weed control” value ([1]; Table 3, ERISS, 28DAA, Paraquat 400 g ai/ha) was 52.5% and 55%. The “Mean % weed control” value ([1]; Table 3, ERISS, 43DAA, Paraquat 400 g ai/ha) was 60% and 65%, the “Mean % weed control” value ([3]; Table 6, ERISU, 13DAA, Paraquat 100 g ai/ha) was 26.3% and the “Mean % weed control” value ([3]; Table 6, ERISU, 13DAA, Paraquat 200 g ai/ha) was 40%. For the same compound, the “Mean % weed control” value ([3]; Table 6, ERISU, 22DAA, Paraquat 100 g ai/ha) was 41.3% and 41.1%, the “Mean % weed control” value ([3]; Table 6, ERISU, 22DAA, Paraquat 200 g ai/ha) was 56.3% and the “Mean % weed control” value ([3]; Table 6, ERISU, 28DAA, Paraquat 100 g ai/ha) was 47.5%. For the same compound, the “Mean % weed control” value ([3]; Table 6, ERISU, 28DAA, Paraquat 200 g ai/ha) was 61.3%, the “Mean % weed control” value ([4]; 14DAA, Paraquat 300 g ai/ha) was 81.8% and the “Mean % weed control” value ([4]; 21DAA, Paraquat 100 g ai/ha) was 56%. The “Mean % weed control” value ([4]; 21DAA, Paraquat 300 g ai/ha) was 82.8%, the “Mean % weed control” value ([4]; 30DAA, Paraquat 100 g ai/ha) was 48.3% and the “Mean % weed control” value ([4]; 30DAA, Paraquat 300 g ai/ha) was 81.8%. The “Mean % weed control” value ([5]; 14DAA) was 54.3%, the “Mean % weed control” value ([5]; 21DAA) was 45% and the “Mean % weed control” value ([5]; 30DAA) was 39.8%.
With `CP(=O)(O)CCC(N)C(=O)O` (stereo not drawn) [Glufosinate ammonium] the “Mean % weed control” value ([3]; Table 1, ERISU, 17DAA, Glufosinate ammonium 366 g ai/ha) was 58.75% and 71.25%, the “Mean % weed control” value ([3]; Table 1, ERISU, 28DAA, Glufosinate ammonium 366 g ai/ha) was 71.25% and the “Mean % weed control” value ([3]; Table 1, ERISU, 43DAA, Glufosinate ammonium 366 g ai/ha) was 78.75%.
